Consider 13 molecules from ChEMBL document CHEMBL1130849, “Novel 1,3-disubstituted-5,10-dihydro-5,10-dioxo-1H-benzo[g] isochromene-3 carboxamides as potent antitumor agents” (Bioorg Med Chem Lett, 1998).

Experiment [1] can be described thus: Selectivity ratio was determined for P-170 glycoprotein mediated multidrug resistant variant SKVLB to the ovarian cancer cell line SK-OV3. It is filed as functional, Cancer cell lines.
Experiment [2] has as its system SK-OV-3. The experiment in a line: Compound was tested for its antitumor activity against SKOV3 human ovarian cancer cell line. It is filed as functional, cell-based.
Experiment [3] deals with HT-29. The experiment in a line: Compound was tested for its antitumor activity against HT-29 colon carcinoma cell line. It counts as functional, cell-based. Particulars: Homo sapiens; call rule not given here.
In experiment [4] the test system is HT-29. Put plainly: Compound was tested for its antitumor activity against HT-29 colon carcinoma cell line; No activity. It counts as functional, cell-based, Homo sapiens.

Usually IC50 stands for the concentration that gives 50% inhibition. A higher IC50 goes with a need for much substance.

Consider `COC1OC(C(=O)NCCCO)=CC2=C1C(=O)c1ccccc1C2=O` (centres undefined), for which, in experiment [1], the Ratio was determined as 6. Moreover, the IC50 in experiment [2] was 60 nM; in experiment [3] it was 1540 nM.

`COC1OC(C(=O)NCCN2CCCC2)=CC2=C1C(=O)c1ccccc1C2=O` (centres undefined): in experiment [1], the Ratio is 10. The figures for the IC50 in experiment [2] and in experiment [3] were 50 nM and 170 nM, respectively.

With `COC1OC(C(=O)N(C)CCN(C)C)=CC2=C1C(=O)c1ccccc1C2=O` (centres undefined), the Ratio in experiment [1] worked out at 5.4. The IC50 worked out at 110 nM in experiment [2] and 1180 nM in experiment [3].

For `COC1OC(C(=O)NCCC[S+](C)C)=CC2=C1C(=O)c1ccccc1C2=O.[Cl-]` (centres undefined), the Ratio in experiment [1] was determined as 13. The IC50 in experiment [2] was 1300 nM; in experiment [4], “Not Active”.

In the case of `COC1OC(C(=O)NCCCNC(=O)C2=CC3=C(C(=O)c4ccccc4C3=O)C(OC)O2)=CC2=C1C(=O)c1ccccc1C2=O` (centres undefined), the Ratio in experiment [1] turned out to be 111. The IC50 in experiment [2] came out at 14 nM; in experiment [3], 150 nM.

Turning to `COC1OC(C(=O)NCCCCN(C)C)=CC2=C1C(=O)c1ccccc1C2=O` (centres undefined), the Ratio in experiment [1] is 4.1. In addition, the IC50 was 140 nM in experiment [2] and “Not Active” in experiment [4].

In the case of `CN(C)CCCNC(=O)C1=CC2=C(CO1)C(=O)c1ccccc1C2=O`, in experiment [1], the Ratio was found to be 5.4. In addition, the IC50 is 220 nM in experiment [2] and “Not Active” in experiment [4].

Turning to `O=C(NCCCBr)C1=CC2=C(CO1)C(=O)c1ccccc1C2=O`, in experiment [1], the Ratio was determined as 2.6. Further, the IC50 in experiment [2] was 1060 nM; in experiment [3], 2760 nM.

As for `CN(C)CCCNC(=O)C1=CC2=C(C(=O)c3ccccc3C2=O)C(O)O1` (centres undefined), in experiment [1], the Ratio was found to be 6.3. Besides, the IC50 in experiment [2] turned out to be 3700 nM; in experiment [3], 6300 nM.

Turning to `COC1OC(C(=O)NCC[N+](C)(C)C)=CC2=C1C(=O)c1ccccc1C2=O` (centres undefined), the Ratio in experiment [1] is recorded as 1.5. The IC50 in experiment [2] was 19500 nM; in experiment [3], 32300 nM.

As to `CCCC1OC(C(=O)NCCCN(C)C)=CC2=C1C(=O)c1ccccc1C2=O` (centres undefined), the Ratio in experiment [1] turned out to be 2. In addition, the IC50 in experiment [2] amounted to 280 nM; in experiment [3], 390 nM.

For `COc1cccc2c1C(=O)c1c(O)c3c(c(O)c1C2=O)C[C@@](O)(C(=O)CO)C[C@@H]3O[C@H]1C[C@H](N)[C@H](O)[C@H](C)O1` [DOXORUBICIN], the Ratio in experiment [1] turned out to be 300. In addition, the IC50 in experiment [2] turned out to be 20 nM; in experiment [3] it was 340 nM.

For the molecule `COC1OC(C(=O)NCCCN(C)C)=CC2=C1C(=O)c1ccccc1C2=O` (centres undefined), in experiment [1], the Ratio was 9.3. Moreover, the figures for the IC50 in experiment [2] and in experiment [3] were 7 nM and 70 nM, respectively.
